From PubChem BioAssay AID1259408 (Genetic Toxicology Data Bank (GENE-TOX), 2018)
Active and inactive are the calls of the source. How the calls were made is not given here.

Test system: GENE-TOX genotoxicity assays, various organisms and cells
Test: GENE-TOX mutagenicity studies
Settings: for call: Assay Type: In vivo carcinogenicity studies
[1] = Species/Cell Type: Allium cepa, Assay Type: Chromosome aberrations, Assay Code: ALC+, Evaluation Type: Evaluation A (Pre-1980)
[2] = Species/Cell Type: Drosophila melanogaster, Assay Type: Sex-linked recessive lethal gene mutation, Assay Code: SRL+, Evaluation Type: Evaluation A (Pre-1980)
[3] = Species/Cell Type: Mammalian polychromatic erythrocytes, Assay Type: Micronucleus test, chromosome aberrations, Assay Code: MNTT, Evaluation Type: Evaluation A (Pre-1980)
[4] = Species/Cell Type: Rodents, Sex: Male, Assay Type: Dominant lethal test, Assay Code: DLT-, Evaluation Type: Evaluation A (Pre-1980)
[5] = Species/Cell Type: Drosophila melanogaster, Assay Type: Sex-linked recessive lethal gene mutation, Assay Code: SRLT, Evaluation Type: Evaluation A (Pre-1980)
[6] = Species/Cell Type: Salmonella typhimurium (one or more of the five standard strains: TA98, TA100, TA1535, TA1537, and TA1538), Assay Type: Histidine reverse gene mutation, Ames assay, Assay Code: SALT, Evaluation Type: Evaluation A (Pre-1980)
[7] = Species/Cell Type: Mammalian polychromatic erythrocytes, Assay Type: Micronucleus test, chromosome aberrations, Assay Code: MNTT, Evaluation Type: Evaluation B (Post-1980)

CCN(CC)C(=O)[C@@H]1C=C2c3cccc4[nH]cc(c34)C[C@H]2N(C)C1
mutagenic call [1]: active; positive | mutagenic call (Species/Cell Type: Arabidopsis species, Assay Type: Gene mutation, Assay Code: ARM-, Evaluation Type: Evaluation A (Pre-1980)): inactive; negative | mutagenic call (Species/Cell Type: Drosophila melanogaster, Assay Type: Aneuploidy, partial sex chromosome loss, chromosome aberrations, Assay Code: DAP+M, Evaluation Type: Evaluation A (Pre-1980)): active; positive | mutagenic call (Species/Cell Type: Drosophila melanogaster, Assay Type: Aneuploidy, sex chromosome gain, chromosome aberrations, Assay Code: DAG+M, Evaluation Type: Evaluation A (Pre-1980)): active; positive | mutagenic call (Species/Cell Type: Drosophila melanogaster, Assay Type: Aneuploidy, whole sex chromosome loss, chromosome aberrations, Assay Code: DAC+M, Evaluation Type: Evaluation A (Pre-1980)): active; positive | mutagenic call [2]: active; positive | mutagenic call (Species/Cell Type: Drosophila melanogaster, Sex: Male, Assay Type: Heritable translocation test, chromosome aberrations, Assay Code: DHT-, Evaluation Type: Evaluation A (Pre-1980)): inactive; negative | mutagenic call (Species/Cell Type: Hordeum vulgare (barley), Assay Type: Chromosome aberrations, Assay Code: HOC+, Evaluation Type: Evaluation A (Pre-1980)): active; positive | mutagenic call (Species/Cell Type: Human lymphocytes or leukocytes, Assay Type: Chromosome aberrations in vitro, Assay Code: CY7-, Evaluation Type: Evaluation A (Pre-1980)): inactive; negative | mutagenic call (Species/Cell Type: Human lymphocytes or leukocytes, Assay Type: Chromosome aberrations in vivo, Assay Code: CY8T, Evaluation Type: Evaluation A (Pre-1980)): no conclusion | mutagenic call (Species/Cell Type: Mammalian germ cells, Sex: Male, Assay Type: Chromosome aberrations in vivo, Assay Code: CY9-, Evaluation Type: Evaluation A (Pre-1980)): inactive; negative | mutagenic call (Species/Cell Type: Mammalian oocytes or early embryo, Assay Type: Chromosome aberrations in vivo, Assay Code: CYO-, Evaluation Type: Evaluation A (Pre-1980)): inactive; negative | mutagenic call [3]: no conclusion | mutagenic call (Species/Cell Type: Nonhuman, Assay Type: Chromosome aberrations in vitro, Assay Code: CY&-, Evaluation Type: Evaluation A (Pre-1980)): inactive; negative | mutagenic call [4]: inactive; negative | mutagenic call (Species/Cell Type: Vicia faba, Assay Type: Chromosome aberrations, Assay Code: VIC-, Evaluation Type: Evaluation A (Pre-1980)): inactive; negative

CCCCS(=O)(=O)OC
mutagenic call (Species/Cell Type: Glycine max (soybean), Assay Type: Gene mutation, Assay Code: GLM+, Evaluation Type: Evaluation A (Pre-1980)): active; positive

CN1CCN(CC(=O)N/N=C/c2ccc([N+](=O)[O-])o2)CC1
mutagenic call (Species/Cell Type: Escherichia coli WP2, Assay Type: Tryptophan reverse gene mutation, Assay Code: WP2-, Evaluation Type: Evaluation A (Pre-1980)): inactive; negative | mutagenic call (Species/Cell Type: Mammalian polychromatic erythrocytes, Assay Type: Micronucleus test, chromosome aberrations, Assay Code: MNT+, Evaluation Type: Evaluation A (Pre-1980)): active; positive | mutagenic call [4]: inactive; negative | mutagenic call (Species/Cell Type: Saccharomyces cerevisiae, Assay Type: Mitotic recombination or gene conversion, Assay Code: YEC+, Evaluation Type: Evaluation A (Pre-1980)): active; positive

COc1ccc(O)cc1
mutagenic call [1]: active; positive

O[C@H]1[C@H](O)[C@@H](O)c2c(cc3ccc4cccc5ccc2c3c45)[C@@H]1O
mutagenic call (Species/Cell Type: Chinese hamster lung (V79) cells, Assay Type: Forward gene mutation at the HPRT or ouabain locus, Assay Code: V79-*, Activation: With metabolic activation, Evaluation Type: Evaluation A (Pre-1980)): inactive; negative

COP(=S)(OC)SCc1nc(N)nc(N)n1
mutagenic call (Species/Cell Type: Hordeum vulgare (barley), Assay Type: Chromosome aberrations, Assay Code: HOC-, Evaluation Type: Evaluation A (Pre-1980)): inactive; negative

O=O
mutagenic call (Species/Cell Type: Chinese hamster lung (V79) cells, Assay Type: Forward gene mutation at the HPRT or ouabain locus, Assay Code: V79+, Evaluation Type: Evaluation A (Pre-1980)): active; positive

C[N+](C)(C)CCO
mutagenic call (Species/Cell Type: Escherichia coli polA (W3119 vs P3478), Assay Type: Rec-assay, DNA effects (bacterial DNA repair), Assay Code: RE1T, Evaluation Type: Evaluation A (Pre-1980)): no conclusion | mutagenic call (Species/Cell Type: Nonhuman, Assay Type: Sister-chromatid exchange (SCE) in vitro, Assay Code: SC2+, Evaluation Type: Evaluation B (Post-1980)): active; positive

CCOS(=O)(=O)CCCS(=O)(=O)OCC
mutagenic call (Species/Cell Type: Arabidopsis species, Assay Type: Gene mutation, Assay Code: ARM+D, Dose Response: With dose response, Evaluation Type: Evaluation A (Pre-1980)): active; positive | mutagenic call (Species/Cell Type: Hordeum vulgare (barley), Assay Type: Chromosome aberrations, Assay Code: HOC+D, Dose Response: With dose response, Evaluation Type: Evaluation A (Pre-1980)): active; positive

CN(C)c1ccc(N=Nc2cccc(CCl)c2)cc1
mutagenic call [5]: no conclusion

O=S(=O)(O)NC1CCCCC1
mutagenic call (Species/Cell Type: Drosophila melanogaster, Assay Type: Aneuploidy, sex chromosome gain, chromosome aberrations, Assay Code: DAG-F, Evaluation Type: Evaluation A (Pre-1980)): inactive; negative | mutagenic call (Species/Cell Type: Drosophila melanogaster, Assay Type: Aneuploidy, whole sex chromosome loss, chromosome aberrations, Assay Code: DAC-F, Evaluation Type: Evaluation A (Pre-1980)): inactive; negative | mutagenic call [5]: no conclusion | mutagenic call (Species/Cell Type: Mammalian germ cells, Sex: Male, Assay Type: Chromosome aberrations in vivo, Assay Code: CY9T, Evaluation Type: Evaluation A (Pre-1980)): no conclusion | mutagenic call [3]: no conclusion | mutagenic call (Species/Cell Type: Mouse, Sex: Male, Assay Type: Sperm morphology, Assay Code: SPI-, Evaluation Type: Evaluation A (Pre-1980)): inactive; negative | mutagenic call (Species/Cell Type: Nonhuman bone marrow, Assay Type: Chromosome aberrations, in vivo, Assay Code: CY#T, Evaluation Type: Evaluation A (Pre-1980)): no conclusion | mutagenic call (Species/Cell Type: Rodents, Sex: Female, Assay Type: Dominant lethal test, Assay Code: DLTF-, Evaluation Type: Evaluation A (Pre-1980)): inactive; negative | mutagenic call [4]: inactive; negative | mutagenic call (Species/Cell Type: Salmonella typhimurium, Serratia marcesens, Assay Type: Forward and reverse gene mutation, host-mediated assay, Assay Code: HM2-, Evaluation Type: Evaluation A (Pre-1980)): inactive; negative

O=c1c2ccc3cccc4c(=O)cc(c5ccccc15)-c2c34
mutagenic call (Species/Cell Type: Chinese hamster lung (V79) cells, Assay Type: Forward gene mutation at the HPRT or ouabain locus, Assay Code: V79-, Evaluation Type: Evaluation A (Pre-1980)): inactive; negative | call (Species/Cell Type: Nonhuman, Assay Code: CCGT, Evaluation Type: Evaluation A (Pre-1980)): no conclusion | mutagenic call [6]: no conclusion

Cc1ccccc1C
mutagenic call [7]: no conclusion

COCCc1ccc(OCC(O)CNC(C)C)cc1 (stereo not given)
mutagenic call [7]: no conclusion

ClC1=C(Cl)[C@]2(Cl)[C@@H]3[C@H]4C[C@H]([C@@H]5O[C@H]45)[C@@H]3[C@@]1(Cl)C2(Cl)Cl
mutagenic call [5]: no conclusion | mutagenic call (Species/Cell Type: Hordeum vulgare (barley), Assay Type: Chromosome aberrations, Assay Code: HOCT, Evaluation Type: Evaluation A (Pre-1980)): no conclusion | mutagenic call (Species/Cell Type: Human diploid fibroblasts, Assay Type: Unscheduled DNA synthesis (UDS) in vitro, DNA effects, Assay Code: UDH-, Evaluation Type: Evaluation A (Pre-1980)): inactive; negative | call (Species/Cell Type: Nonhuman, Assay Code: CCG-L, Evaluation Type: Evaluation A (Pre-1980)): inactive; negative | mutagenic call (Species/Cell Type: Saccharomyces cerevisiae, Assay Type: Mitotic recombination or gene conversion, Assay Code: YEH-, Evaluation Type: Evaluation A (Pre-1980)): inactive; negative | mutagenic call (Species/Cell Type: Salmonella typhimurium (one or more of the five standard strains: TA98, TA100, TA1535, TA1537, and TA1538), Assay Type: Histidine reverse gene mutation, Ames assay, Assay Code: SAL-, Evaluation Type: Evaluation A (Pre-1980)): inactive; negative | mutagenic call (Species/Cell Type: Vicia faba, Assay Type: Chromosome aberrations, Assay Code: VIC+D, Dose Response: With dose response, Evaluation Type: Evaluation A (Pre-1980)): active; positive

CC(C)NP(=O)(N1CC1)N1CC1
mutagenic call [2]: active; positive | mutagenic call (Species/Cell Type: Nonhuman, Assay Type: Chromosome aberrations in vitro, Assay Code: CY&+, Evaluation Type: Evaluation A (Pre-1980)): active; positive

Nc1ccc2[nH]ncc2c1
mutagenic call (Species/Cell Type: Rat, Sex: Male, Assay Type: Sperm morphology, Assay Code: SPA+, Evaluation Type: Evaluation A (Pre-1980)): active; positive

CCCCN(CCC)N=O
mutagenic call (Species/Cell Type: Salmonella typhimurium (one or more of the five standard strains: TA98, TA100, TA1535, TA1537, and TA1538), Assay Type: Histidine reverse gene mutation, Ames assay, Assay Code: SAL+*, Activation: With metabolic activation, Evaluation Type: Evaluation A (Pre-1980)): active; positive

O=C1NCCN1/N=C/c1ccc([N+](=O)[O-])o1
call (Species/Cell Type: Nonhuman, Assay Code: CCG+, Evaluation Type: Evaluation A (Pre-1980)): active; positive

CN=c1ccc2cc3ccc(NC)cc3oc-2c1
mutagenic call [5]: no conclusion

O=S(O)S(=O)O
mutagenic call (Species/Cell Type: Human lymphocytes, Assay Type: Sister-chromatid exchange (SCE) in vitro, Assay Code: SCLT, Evaluation Type: Evaluation B (Post-1980)): no conclusion | mutagenic call (Species/Cell Type: Human, Assay Type: Sister-chromatid exchange (SCE) in vitro, Assay Code: SC1T, Evaluation Type: Evaluation B (Post-1980)): no conclusion

CN(OC(=O)c1ccccc1)c1ccc(N=Nc2ccccc2)cc1
mutagenic call [5]: no conclusion

CC1CC2OC(/C=C/C=C/C=C/C=C/C=C/C(O)=C3\C(=O)C(C(C)C)N(C)C3=O)C(O)C2O1 (stereo not given)
mutagenic call (Species/Cell Type: Bacillus subtilis (H17 vs M45), Assay Type: Rec-assay, spot test, DNA effects (bacterial DNA repair), Assay Code: REW-, Evaluation Type: Evaluation A (Pre-1980)): inactive; negative

Cc1n(C)c([N+](=O)[O-])c[n+]1C
mutagenic call [6]: no conclusion

Cc1cccc(N(C)C(=S)Oc2ccc3ccccc3c2)c1
mutagenic call (Species/Cell Type: Neurospora crassa, Assay Type: Aneuploidy, chromosome aberrations, Assay Code: NEN-, Evaluation Type: Evaluation A (Pre-1980)): inactive; negative

O=C1N(CCO)CCN1/N=C/c1ccc([N+](=O)[O-])o1
mutagenic call (Species/Cell Type: Salmonella typhimurium (one or more of the five standard strains: TA98, TA100, TA1535, TA1537, and TA1538), Assay Type: Histidine reverse gene mutation, Ames assay, Assay Code: SAL+, Evaluation Type: Evaluation A (Pre-1980)): active; positive
